The numbers were not newly measured in patent US20140155265A1, “HERBICIDAL COMPOSITIN COMPRISING PINOXADEN AND FLUROXYPYR AND METHODS OF USE THEREOF” (priority 2011, published 2014), which cites them from elsewhere.

The pKa is the pH at which an ionisable group is half protonated.

For the data set the following is noted: Pesticide Manual 15th edition.

Regarding `Nc1c(Cl)c(F)nc(OCC(=O)O)c1Cl` [Fluoroxypyr (free carboxylic acid), Fluoroxypyr], the pKa is recorded as 2.94.
